In patent publication US11173156B2, “Solid forms of a kynurenine-3-monooxygenase inhibitor” (CHDI Foundation, Inc., priority 2019, dated 2021):
“Also recorded” adds a separate entry of the source.

Legend:
Assay type in all cases: physicochemical
[1] = Approximate aqueous solubility of salts/co-crystals (visual, solvent addition method); conditions: water, thermodynamic from solid, free acid solids retained from filtered aqueous phase, portion rinsed with water, read-out: solubility observed
[2] = Competitive slurry experiments
Experimental: Competitive slurry experiments were also conducted to evaluate form stability of the solid forms of the sodium salt of Compound I. Slurries were prepared by combining Compound I sodium Pattern A, Form B, Pattern C and Pattern D with a solvent, allowing the slurry to equilibrate with stirring at room temperature. The slurries were analyzed at three day and ten day time points, filtered, and analyzed by XRPD (Table 14).

[3] = Stability at elevated temperatures (XRPD, HPLC)
[4] = Water activity interconversion slurries; conditions: for water activity at which the form is stable / favored: competitive water activity slurries
From the text: The resulting solid phase was characterized by XRPD (Table 16). The experiments establish the physically stable form at various aw.
Water activity is related to relative humidity in that RH %=aw×100. Therefore, it is possible to directly relate the stability of an anhydrous/hydrate system in slurry experiments to solid state stability. Slurry technique at controlled water activities provides an accurate method of rapidly predicting the physically stable form in anhydrous/hydrate systems. This method is particularly valuable when relatively slow kinetics of conversion in the solid state prevents reaching true equilibrium in a reasonable timeframe, since solvent-mediated transformation accelerates the conversion process.

[5] = Slurry experiments (form stability); conditions: for relative stability of the form (in words): at the conditions evaluated
Experimental: Solutions were prepared by adding enough solids to a given solvent so that excess solids were present. The mixture was then agitated in a sealed vial at either ambient or an elevated temperature. After a given amount of time, the solids were isolated for analysis.
The formation and stability of solid forms of the sodium salt of Compound I was further evaluated via slurry experiments. The slurries were formed by combining Compound I sodium Pattern A and a solvent, and allowing the slurry to equilibrate at room temperature. If a free flowing slurry was not achieved, an additional amount of the respective solvent was added before the room temperature equilibration step. All slurries were isolated via centrifuge filtration after five days and twelve days of equilibration. The solids were analyzed by XRPD to check for pattern conversion (Table 13).

[6] = Approximate aqueous solubility of salts/co-crystals (visual, solvent addition method); conditions: water
Experimental: (§1) A weighed sample was treated with aliquots of the test solvent at room temperature. The mixture was sonicated between additions to facilitate dissolution. Complete dissolution of the test material was determined by visual inspection. Solubility was estimated based on the total solvent used to provide complete dissolution. Some samples were then heated and observed visually for complete dissolution. The actual solubility may be greater than the value calculated because of the use of solvent aliquots that were too large or due to a slow rate of dissolution. […] If complete dissolution was achieved as a result of only one aliquot addition, the solubility is expressed as “greater than.”

[7] = Solubility of Compound I sodium salt forms in solvents and binary solvent systems
Experimental: as §1

[8] = Stability at elevated temperatures (XRPD, HPLC); conditions: for HPLC: after storage at 60 ° C. (time point not given)
Experimental: The stability of Compound I sodium Patterns A, C, and D and Form B, at about 60° C. was evaluated. These forms were weighed into vials covered with a Kimwipe tissue and stored in an oven at 60° C. and ambient pressure. After three days and ten days of exposure, the solids were analyzed by XRPD to check for form conversion. […].

[9] = Deliquescence of salts/co-crystals during exposure to 75% RH; conditions: ambient temperature, 3 day exposure
Experimental: The salts identified from the salt/co-crystal screen of Compound I (see section 4 above) were assessed visually for deliquescence during exposure to 75% RH at ambient temperature (Table 5). […] The materials from these experiments were recovered and re-analyzed by XRPD to determine if changes in solid form occurred.

[10] = XRPD analysis of remaining solids from aqueous solubility assessments; conditions: solids recovered from mother liquor of aqueous solubility assessment
From the text: Compound I ethylenediamine A+B disproportionated, as peaks similar to those observed for Compound I free acid Material C were observed.

[11] = Dynamic vapor sorption/desorption (DVS)
[12] = Physical stability on drying, ambient exposure or heating

With `O=C(O)c1cc(-c2ccc(OC3CC3)c(Cl)c2)ncn1` [Compound I, 6-(3-chloro-4-cyclopropoxyphenyl)pyrimidine-4-carboxylic acid] the solubility [1] was < 4000 µg/mL.

In the case of `O=C(O)c1cc(-c2ccc(OC3CC3)c(Cl)c2)ncn1` [Compound I sodium Form E, 6-(3-chloro-4-cyclopropoxyphenyl)pyrimidine-4-carboxylic acid], the “form conversion in competitive slurry” value ([2]; acetone and water) is reported as “converted to Compound I sodium Form B”, the “Results (XRPD form)” value ([3]; 65° C., after 20 min and after 50 min) is reported as “Form B” and the “Results (XRPD form)” value ([3]; 78° C., 18 days) is reported as “Form B”. The “Results (XRPD form)” value ([3]; 205° C., briefly) was “Form B + peaks”, the “Results (XRPD form)” value ([3]; under N2: heat to 175° C. then cooled to 150° C., held for 10 minutes) was “Form B + peaks” and the “water activity at which the form is stable / favored” value [4] was ≥ 0.91 aw.

With `O=C(O)c1cc(-c2ccc(OC3CC3)c(Cl)c2)ncn1` [Compound I sodium Form B, 6-(3-chloro-4-cyclopropoxyphenyl)pyrimidine-4-carboxylic acid] the “stability in slurry (in words)” value ([5]; IPA and acetone) was “stable for about at least seven days”, the “relative stability of the form (in words)” value [5] was “predominant and most thermodynamically stable form; also recorded: most thermodynamically stable anhydrate form” and the “aqueous solubility (in words)” value [6] was “desirable aqueous solubility; also recorded: good aqueous solubility”. It also gave a solubility ([6]; estimated visually, solvent addition method) of 4000 µg/mL, a solubility ([7]; Methanol, ambient) of 6 mg/mL loading and a solubility ([7]; Water, ambient) of 2 mg/mL loading. For the same compound, the solubility ([7]; organic solvent or mixture, thermodynamic from solid, Acetone, 55° C., read-out: Solubility) was < 2000 µg/mL, the solubility ([7]; organic solvent or mixture, thermodynamic from solid, Acetone, ambient, read-out: Solubility) was < 2000 µg/mL and the solubility ([7]; organic solvent or mixture, thermodynamic from solid, Acetone/water, 94:6 v/v, 55° C., read-out: Solubility) was < 2000 µg/mL. The solubility ([7]; organic solvent or mixture, thermodynamic from solid, Acetone/water, 94:6 v/v, ambient, read-out: Solubility) was < 2000 µg/mL, the solubility ([7]; organic solvent or mixture, thermodynamic from solid, Acetonitrile, 55° C., read-out: Solubility) was < 2000 µg/mL and the solubility ([7]; organic solvent or mixture, thermodynamic from solid, Acetonitrile, ambient, read-out: Solubility) was < 2000 µg/mL. The solubility ([7]; organic solvent or mixture, thermodynamic from solid, Acetonitrile/water, 83:17 v/v, ambient, read-out: Solubility) was 2000 µg/mL, the solubility ([7]; organic solvent or mixture, thermodynamic from solid, Ethanol, 55° C., read-out: Solubility) was < 2000 µg/mL and the solubility ([7]; organic solvent or mixture, thermodynamic from solid, Ethanol, ambient, read-out: Solubility) was < 2000 µg/mL. For the same compound, the solubility ([7]; organic solvent or mixture, thermodynamic from solid, Ethanol/water, 88:12 v/v, 55° C., read-out: Solubility) was ~2000 µg/mL, the solubility ([7]; organic solvent or mixture, thermodynamic from solid, Ethanol/water, 88:12 v/v, ambient, read-out: Solubility) was ~2000 µg/mL and the solubility ([7]; organic solvent or mixture, thermodynamic from solid, Isopropanol, 55° C., read-out: Solubility) was < 2000 µg/mL. For the same compound, the solubility ([7]; organic solvent or mixture, thermodynamic from solid, Isopropanol, ambient, read-out: Solubility) was < 2000 µg/mL, the solubility ([7]; organic solvent or mixture, thermodynamic from solid, Isopropanol/water, 91:9 v/v, 55° C., read-out: Solubility) was < 2000 µg/mL and the solubility ([7]; organic solvent or mixture, thermodynamic from solid, Isopropanol/water, 91:9 v/v, ambient, read-out: Solubility) was < 2000 µg/mL. The solubility ([7]; thermodynamic from solid, Water, ambient, read-out: Solubility) was ≥ 6000 µg/mL, the “chemical and physical form changes after storing at elevated temperatures” value ([8]; about 60° C. and about 78° C.) was “No chemical and physical form changes were observed” and the HPLC [8] was >99.9 % AUC. The “Result (XRPD after exposure)” value ([9]; listed as Sodium B) was “Sodium B”, the “Observation (deliquescence)” value ([9]; visual) was “no deliquescence” and the “Result (XRPD of remaining solids)” value [10] was “remained unchanged by XRPD”. The “Result (XRPD of remaining solids)” value ([10]; listed as Sodium B) was “Sodium B”, the “hygroscopicity by DVS analysis (in words)” value [11] was “hygroscopic” and the “DVS weight loss upon equilibration at about 5% RH” value ([11]; about 5% RH) was “about 0.03%”. For the same compound, the “material recovered from the DVS analysis compared with starting material by XRPD” value ([11]; after DVS) was “substantially the same as the starting material”, the DVS weight gain ([11]; from about 5 to about 95% RH) was ~5.39% and the DVS weight loss ([11]; from about 95% to about 5% RH) was ~5.14%. For the same compound, the “gain observed by DVS analysis” value ([11]; sorption cycle) was ~5 wt %, the “Results (XRPD form)” value ([4]; 0.33 aw, 16:84 H2O/DMF, 6 days) was “Form B” and the “Results (XRPD form)” value ([4]; 0.39 aw, 15:85 H2O/MeOH, 6 days) was “Form B”. The “Results (XRPD form)” value ([4]; 0.50 aw, 30:70 H2O/DMF, 6 days) was “Form B”, the “Results (XRPD form)” value ([4]; 0.58 aw, 6:94 H2O/Acetone, 6 days) was “Form B” and the “Results (XRPD form)” value ([4]; 0.70 aw, 50:50 H2O/DMF, 6 days) was “Form B”. For the same compound, the “Results (XRPD form)” value ([4]; 0.86 aw, 70:30 H2O/MeOH, 6 days) was “Form B”, the “Results (XRPD form)” value ([4]; 0.91 aw, 50:50 H2O/Acetone, 1 day) was “Form E” and the “Results (XRPD form)” value ([4]; 0.98 aw, 90:10 H2O/Acetone, 6 days) was “Form E”. The “water activity at which the form is stable / favored” value [4] was ≤ 0.86 aw.

In the case of `O=C(O)c1cc(-c2ccc(OC3CC3)c(Cl)c2)ncn1` [Compound I sodium Pattern F, 6-(3-chloro-4-cyclopropoxyphenyl)pyrimidine-4-carboxylic acid], the “effect of exposure to ambient” value ([12]; ambient for about 1 day) is reported as “become disordered”.

With `O=C(O)c1cc(-c2ccc(OC3CC3)c(Cl)c2)ncn1` [Compound I sodium Pattern D, 6-(3-chloro-4-cyclopropoxyphenyl)pyrimidine-4-carboxylic acid] the “form conversion in slurry / trituration” value ([5]; acetone and/or isopropanol (trituration, single form or competitive slurry)) was “converted to Compound I sodium Form B”, the “relative stability of the form (in words)” value [5] was “not stable” and the “form conversion in competitive slurry” value ([2]; water) was “Compound I sodium Form B”. For the same compound, the “chemical and physical form changes after storing at elevated temperature” value ([8]; about 60° C.) was “No chemical and physical form changes were observed” and the HPLC [8] was >99.9 % AUC.

With `O=C(O)c1cc(-c2ccc(OC3CC3)c(Cl)c2)ncn1` [Compound I sodium amorphous, 6-(3-chloro-4-cyclopropoxyphenyl)pyrimidine-4-carboxylic acid] the “form conversion on heating” value ([12]; heated to about 150° C.) was “converts to Compound I sodium Form B”.
